Paper PMC2364081, “Antagonists of retinoic acid receptors (RARs) are potent growth inhibitors of prostate carcinoma cells” (British Journal of Cancer, 2001)

Legend:
[1] = tested on: LNCaP, PC3 and DU145 cells; assay: Plate colony formation assay, stated over the three serum-free grown lines; assay type: cell-based, human
Source text: (§1) Prostate cancer is one of the most common cancers in European and American males and has a high mortality rate (Landis et al, 1998; Rosenthal, 1998). Early disease is managed conservatively in Europe although in selected patients surgery is curative. In advanced disease, androgen ablation can produce symptomatic improvement, but the tumour often re-emerges in an androgen- independent and incurable form. One proposed treatment for androgen-independent prostate carcinoma is differentiation ther- apy, in which agents such as all-trans-retinoic acid (ATRA), 9-cis- retinoic acid and 1, 25-dihydroxyvitamin D3 (D3 ) are used to induce growth arrest, differentiation and sometimes apoptosis of the tumour cells (Liang et al, 1999; de Vos et al, 1997; Skowronski et al, 1994; Hedlund et al, 1997). ATRA and synthetic analogues exert their biological effects by binding to two families of retinoid receptors, […]. These are ligand-dependent transcription factors of the steroid/thyroid hormone nuclear receptor superfamily (Chambon 1994; Boehm et al, 1995). Activated RARs bind to retinoic acid-responsive elements (RAREs) in the promoters of genes and thus regulate gene expression. They also antagonize the activity of the tran- scription factor AP1 and thereby down-regulate the expression of some AP1-activated genes (Nagpal et al, 1995). One approach to unravelling the contributions of RAR sub-types to these actions has been the development of synthetic retinoids with selective activities at individual RARs and RXRs. For example, the diaryl- acetylenic retinoids allow separation of transactivation and AP1 antagonism functions at RAR (Nagpal et al, 1995). Recently, compounds that are selective for particular RAR sub-types have been synthesized: these include both agonists and antagonists (Chandraratna, 1995; Teng et al, 1999; Johnson et al, 1999). The functional selectivity of these compounds may open the way to achieving differentiation or apoptosis of tumour cells with minimal systemic side effects (Chandraratna, 1995). Cell lines that are commonly used in the evaluation of investiga- tional agents for prostate cancer include LNCaP, DU-145 and PC- 3. […] These lines are relatively insensitive to growth inhibition and induction of apoptosis by ATRA and by synthetic agonists. […] Fenretinide (4HPR) induces apoptosis of LNCaP and of PC-3 cells at 1-5 M and 25 µM, respectively (Pienta et al, 1993; Heish and Wu, 1997). Pfahl and colleagues examined the growth inhibitory effects of a panel of receptor-selective retinoids against DU145 and PC-3 cells and achieved complete growth inhibition and induction of apoptosis between 1 M and 10 M (Lu et al, 1999). […] Antagonists of retinoic acid receptors (RARs) are potent growth inhibitors of prostate carcinoma cells LA Hammond1 , CH Van Krinks2 , J Durham2 , SE Tomkins2 , RD Burnett3 , EL Jones1 , RAS Chandraratna3 and G Brown2 Divisions of 1 Cancer Studies and of 2 Immunity and Infection, University of Birmingham Medical School, Edgbaston, Birmingham B15 2TT, UK and 3 Retinoid Research, Allergan Inc., Irvine, California, USA Summary Novel synthetic antagonists of retinoic acid receptors (RARs) have been developed. To avoid interference by serum retinoids when testing these compounds, we established serum-free grown sub-lines (>3 years) of the prostate carcinoma lines LNCaP, PC3 and DU145. […] A component(s) of serum and of LNCaP-conditioned medium diminishes the activity of antagonists: this factor is not the most likely candidates IGF-1 and EGF. In vitro studies of RAR antagonists together with data from RAR-null mice lead to the hypothesis that RAR-regulated gene transcription is necessary for the survival and maintenance of prostate epithelium. […]

RARα = target: T1, RARα (Homo sapiens, UniProt P10276); assay: Binding to baculovirus-expressed RARα; set-up: made in house; conditions: baculovirus-expressed receptor
T1 sequence (P10276 1-462): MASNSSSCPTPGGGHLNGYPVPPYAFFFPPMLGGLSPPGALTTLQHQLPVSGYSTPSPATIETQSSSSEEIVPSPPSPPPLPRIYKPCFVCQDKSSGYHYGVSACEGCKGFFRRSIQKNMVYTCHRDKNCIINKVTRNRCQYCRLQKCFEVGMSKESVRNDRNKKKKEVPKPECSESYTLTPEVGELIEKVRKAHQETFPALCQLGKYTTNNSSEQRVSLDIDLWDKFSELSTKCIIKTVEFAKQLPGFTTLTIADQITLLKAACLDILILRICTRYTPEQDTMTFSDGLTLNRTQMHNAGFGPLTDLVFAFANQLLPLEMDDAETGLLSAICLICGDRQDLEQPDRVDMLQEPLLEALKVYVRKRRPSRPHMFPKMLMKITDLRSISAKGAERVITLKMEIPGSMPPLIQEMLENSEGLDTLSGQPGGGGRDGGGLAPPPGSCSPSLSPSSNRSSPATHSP
Source text: as §1

DU145 ITS+ cells = assay: Plate colony formation assay, serum-free (ITS+)-grown DU145; assay type: cell-based, human; conditions: 14 days
Source text: Prostate cancer is one of the most common cancers in European and American males and has a high mortality rate (Landis et al, 1998; Rosenthal, 1998). Early disease is managed conservatively in Europe although in selected patients surgery is curative. In advanced disease, androgen ablation can produce symptomatic improvement, but the tumour often re-emerges in an androgen- independent and incurable form. One proposed treatment for androgen-independent prostate carcinoma is differentiation ther- apy, in which agents such as all-trans-retinoic acid (ATRA), 9-cis- retinoic acid and 1, 25-dihydroxyvitamin D3 (D3 ) are used to induce growth arrest, differentiation and sometimes apoptosis of the tumour cells (Liang et al, 1999; de Vos et al, 1997; Skowronski et al, 1994; Hedlund et al, 1997). ATRA and synthetic analogues exert their biological effects by binding to two families of retinoid receptors, the RARs (RAR, RAR and RAR) and the RXRs (RXR, RXR and RXR). These are ligand-dependent transcription factors of the steroid/thyroid hormone nuclear receptor superfamily (Chambon 1994; Boehm et al, 1995). Activated RARs bind to retinoic acid-responsive elements (RAREs) in the promoters of genes and thus regulate gene expression. They also antagonize the activity of the tran- scription factor AP1 and thereby down-regulate the expression of some AP1-activated genes (Nagpal et al, 1995). One approach to unravelling the contributions of RAR sub-types to these actions has been the development of synthetic retinoids with selective activities at individual RARs and RXRs. For example, the diaryl- acetylenic retinoids allow separation of transactivation and AP1 antagonism functions at RAR (Nagpal et al, 1995). Recently, compounds that are selective for particular RAR sub-types have been synthesized: these include both agonists and antagonists (Chandraratna, 1995; Teng et al, 1999; Johnson et al, 1999). The functional selectivity of these compounds may open the way to achieving differentiation or apoptosis of tumour cells with minimal systemic side effects (Chandraratna, 1995). […]

HL60 cells = assay: Clonal growth of single serum-free grown HL60 cells in microtitre wells; assay type: cell-based, human
Source text: as §1

With `CCc1ccc(C2=CC(C)(C)Sc3ccc(C#Cc4ccc(C(=O)O)cc4)cc32)cc1` [AGN194310] the “colony formation (% of control)” value ([1]; 100 nM, ITS+-grown cells, all three cell lines) was 3-7%, the “fold more potent than ATRA” value ([1]; against cell lines, serum-free) was 12–22 fold and the IC50 ([1]; stated over all three serum-free grown lines, read-out: concentration inhibiting colony formation by 50% (IC50)) was 16 to 34 nM. For the same molecule, the Kd (RARα) was 3 nM, the IC50 (DU145 ITS+ cells) was 34 nM and the “effect on clonal growth of HL60 cells” value (HL60 cells) was “did not adversely affect”. For the same molecule, the “viability of the single cells” value (HL60 cells; 0.1 µM) was > 95%, the “number of viable cells at day 4” value (HL60 cells; 100 nM, control 18) was 17 and the cloning efficiency (HL60 cells; 100 nM, same as untreated) was 90-93%.
